Where two headings read alike, the source gives them in different places.
Key:
[1] = test system: amylase and lipase levels; settings: Example 1; for Lipase: Normal 8-57; for Amylase: Normal 30-110
From the text: (§1) A patient who has experienced over 5 years of constant abdominal pain secondary to chronic pancreatitis is given intravenous reduced L-glutathione therapy.

[2] = test system: patient with constant abdominal pain secondary to chronic pancreatitis; settings: for Pain Score: GSH (1 gm) IV
From the text: as §1

[3] = test system: patient with acute pancreatitis, abdominal pain; assay: Example 2: pain score of a patient with acute pancreatitis after a single dose of intravenous reduced L-glutathione; format: in vivo, human
From the text: (§3) The patient improved substantially over a several week period on nonspecific supportive therapy but continued to require pain medication intermittently.

[4] = test system: amylase, lipase and C-reactive protein levels; settings: Example 3; for CRP: Normal 0-7.48; for Lipase: Normal 8-57; for Amylase: Normal 30-110
From the text: (§2) A person had experienced 5 weeks of increasing back and abdominal pain prior to first dose of intravenous L-glutathione. […] The patient elected to undergo intravenous L-glutathione reduced therapy for pancreatitis.

[5] = test system: patient with back and abdominal pain, pancreatitis; settings: for Pain Score: GSH (1 gm)
From the text: as §2

[6] = test system: amylase and lipase levels; settings: Example 2; for Lipase: Normal 8-57; for Amylase: Normal 30-110
From the text: as §3

[7] = test system: patients with acute pancreatitis; settings: previous studies, cited from earlier work; for benefit in patients with acute pancreatitis: administration of n-acetylcysteine together with the antioxidants selenium and vitamin C
[8] = known value; cited from earlier work
[9] = Sep. 14, 2007 (before first GSH infusion of Sep. 28, 2007)
[10] = Sep. 28, 2007 (date of first GSH infusion)
[11] = Jun. 3, 2008 (date of first GSH dose)
[12] = May 22, 2008 (before first GSH dose of Jun. 3, 2008)
[13] = May 30, 2008 (before first GSH dose)
[14] = May 7, 2008 (date of GSH infusion)

Question: Which Lipase ([1]; Jun. 27, 2008) does the source give for `NC(CCC(=O)NC(CS)C(=O)NCC(=O)O)C(=O)O` (stereo not shown) [GSH, 2-amino-4-[[1-(carboxymethylcarbamoyl)-2-sulfanyl-ethyl]carbamoyl]butanoic acid] here?
Answer: The Lipase was 30.

Question: What about the Amylase ([1]; Jun. 27, 2008) of the same compound?
Answer: The Amylase was 68.

Question: And the Lipase ([1]; Nov. 5, 2007)?
Answer: Its Lipase is 39.

Question: What about the Amylase ([1]; Nov. 5, 2007) of the same compound?
Answer: The Amylase was 62.

Question: What about the Lipase [1, 9] of the same compound?
Answer: The Lipase was 108.

Question: What about the Amylase [1, 9] of the same compound?
Answer: The Amylase was 90.

Question: What about the Lipase [1, 10] of the same compound?
Answer: The Lipase was 64.

Question: And the Amylase [1, 10]?
Answer: Its Amylase is 79.

Question: And the “amylase and lipase levels” value ([1]; during the course of treatment)?
Answer: The value was “significantly reduced”.

Question: What about the “Pain Score” value ([2]; Example 1, person, Sep. 28, 2007, pain medication hydrocodone) of the same compound?
Answer: The value was 8 of 10.

Question: And the “Pain Score” value ([2]; Example 1, Dec. 10, 2007, pain medication propoxyphene)?
Answer: The value was 1 of 10.

Question: What about the “Pain Score” value ([2]; Example 1, Dec. 17, 2007, pain medication None) of the same compound?
Answer: Its value is 0 of 10.

Question: And the “Pain Score” value ([2]; Example 1, Jan. 3, 2008, pain medication None)?
Answer: The value was 0 of 10.

Question: And the “Pain Score” value ([2]; Example 1, Nov. 12, 2007, pain medication propoxyphene)?
Answer: Its value is 1 of 10.

Question: What about the “Pain Score” value ([2]; Example 1, Oct. 10, 2007, pain medication propoxyphene) of the same compound?
Answer: The value was 5 of 10.

Question: What about the “Pain Score” value ([2]; Example 1, Oct. 29, 2007, pain medication propoxyphene) of the same compound?
Answer: The value was 2 of 10.

Question: What about the “Pain reported by the patient” value ([2]; Example 1, within four months of initiating reduced L-glutathione therapy) of the same compound?
Answer: Its value is “absence of pain”.

Question: And the “Pain Score” value ([3]; Example 2, person, GSH (1 gm) IV, May 7, 2008, pain medication hydrocodone)?
Answer: Its value is 5 of 10.

Question: What about the “Pain Score” value ([3]; Example 2, May 9, 2008, follow up visit only, no infusion given, pain medication None) of the same compound?
Answer: Its value is 0 of 10.

Question: And the “pain and enzyme levels” value ([3]; Example 2, single dose of intravenous reduced L-glutathione)?
Answer: The value was “responded to a single dose”.

Question: What about the CRP [4, 11] of the same compound?
Answer: Its CRP is 7.84.

Question: What about the Lipase [4, 11] of the same compound?
Answer: Its Lipase is 112.

Question: And the Amylase [4, 11]?
Answer: Its Amylase is 95.

Question: What about the CRP ([4]; Jun. 5, 2008) of the same compound?
Answer: Its CRP is 9.11.

Question: What about the Lipase ([4]; Jun. 5, 2008) of the same compound?
Answer: The Lipase was 152.

Question: And the Amylase ([4]; Jun. 5, 2008)?
Answer: Its Amylase is 128.

Question: And the Lipase ([4]; Jun. 16, 2008)?
Answer: The Lipase was 89.

Question: What about the Amylase ([4]; Jun. 16, 2008) of the same compound?
Answer: The Amylase was 75.

Question: What about the CRP ([4]; Jun. 25, 2008) of the same compound?
Answer: The CRP was 3.97.

Question: What about the Lipase ([4]; Jun. 25, 2008) of the same compound?
Answer: Its Lipase is 60.

Question: And the Amylase ([4]; Jun. 25, 2008)?
Answer: The Amylase was 64.

Question: And the Lipase [4, 12]?
Answer: The Lipase was 150.

Question: What about the Amylase [4, 12] of the same compound?
Answer: Its Amylase is 105.

Question: What about the Lipase [4, 13] of the same compound?
Answer: Its Lipase is 150.

Question: What about the Amylase [4, 13] of the same compound?
Answer: The Amylase was 124.

Question: And the “amylase, lipase and C-reactive protein levels” value ([4]; within a month of intravenous L-glutathione reduced therapy)?
Answer: The value was “reduction”.

Question: What about the “Pain Score” value ([5]; Example 3, person, Jun. 3, 2008, pain medication hydrocodone) of the same compound?
Answer: Its value is 5 of 10.

Question: What about the “Pain Score” value ([5]; Example 3, Jun. 4, 2008, pain medication hydrocodone) of the same compound?
Answer: The value was 0 of 10.

Question: And the “Pain Score” value ([5]; Example 3, Jun. 5, 2008, pain medication hydrocodone)?
Answer: The value was 2.5 of 10.

Question: And the “Pain Score” value ([5]; Example 3, Jun. 6, 2008, pain medication hydrocodone)?
Answer: Its value is 4.5 of 10.

Question: And the “Pain Score” value ([5]; Example 3, Jun. 9, 2008, pain medication hydrocodone)?
Answer: Its value is 3 of 10.

Question: What about the “Pain Score” value ([5]; Example 3, Jun. 16, 2008, pain medication None) of the same compound?
Answer: Its value is 0 of 10.

Question: And the “Pain Score” value ([5]; Example 3, Jun. 18, 2008, pain medication None)?
Answer: Its value is 0 of 10.

Question: And the “Pain Score” value ([5]; Example 3, Jun. 25, 2008, Back pain due to lifting furniture)?
Answer: Its value is 2 of 10.

Question: And the pain ([5]; Example 3, within a month of intravenous L-glutathione reduced therapy)?
Answer: Its pain is “significant decrease in pain”.

Question: What about the Lipase [6, 14] of the same compound?
Answer: Its Lipase is 161.

Question: And the Amylase [6, 14]?
Answer: The Amylase was 115.

Question: What about the Lipase ([6]; May 9, 2008) of the same compound?
Answer: The Lipase was 132.

Question: And the Amylase ([6]; May 9, 2008)?
Answer: The Amylase was 105.

Question: What about the “effect on multiple organ functions in patients with acute pancreatitis” value ([7]; administration of glutathione) of the same compound?
Answer: The value was “protective effect”.

Question: For `CC(C)OC(=O)CNC(=O)[C@H](CS)NC(=O)CC[C@H](N)C(=O)O` [glutathione isopropyl ester], which “toxicity LD 50 value” [8] is on record?
Answer: Its value is “about 5.3 g/kg”.

Question: Which pain ([3]; Example 2, May 7, 2008, pain described as 10/10, relieved with hydrocodone taken at home, before GSH) does the source give for `COc1ccc2c3c1O[C@H]1C(=O)CC[C@H]4[C@@H](C2)N(C)CC[C@]314` [hydrocodone, reference compound] here?
Answer: Its pain is 5 /10.

Question: For `CC(=O)N[C@@H](CS)C(=O)O` [n-acetylcysteine, reference compound], which “benefit in patients with acute pancreatitis” value (“benefit in patients” below) [7] is on record?
Answer: Its value is “failed to show any benefit”.

Question: With `[Se]` [selenium] as the compound, how does the “benefit in patients” value [7] read?
Answer: The value was “failed to show any benefit”.

Question: Which “benefit in patients” value [7] does the source give for `O=C1O[C@H]([C@@H](O)CO)C(O)=C1O` [vitamin C, reference compound] here?
Answer: Its value is “failed to show any benefit”.

— patent US9289462B2, “Method for medical treatment utilizing glutathione” (priority 2008, dated 2016)
